# Assays:
# [1] = test system: PXR target gene transcription (Mdr-1); experiment: PXR target gene (Mdr-1) qPCR in jejunum apical enterocytes after oral IPA; format: in vivo, mice; conditions: oral IPA 20 mg/kg; Mdr-1, jejunum apical enterocytes
# Experimental: 2.0 μg of total RNA extracted from pooled apical enterocytes with TRIzolR (Invitrogen), were reverse transcribed with random hexamer primers and SuperScript™ III-RT enzyme (Invitrogen). Quantitative PCR (qPCR) reactions using TaqMan universal PCR master mix and TaqMan probes containing FAM as the 5′ reporter fluorochrome and tetramethylrhodamine (MGB) as the 3′ quencher fluorochrome, were performed in triplicate for each sample and analyzed on the ABI Prism 7900HT system. […] Controls include RT-minus RNA samples. PCR reaction conditions for all assays were set at 50° C. for 2 minutes, 95° C. for 10 minutes, followed by 40 cycles of amplification (95° C. for 15 seconds then 60° C. for 1 minute). Experiments were performed at least two independent times each in triplicates.
# [2] = biological target: T1, mPXR ligand binding domain (Mus musculus, UniProt O54915); experiment: LanthaScreen TR-FRET PXR competitive binding assay, mPXR LBD; conditions: read-out: EC50 for ligand displacement in mPXR
# T1 construct: made in house
# T1 sequence (O54915 143-430 limits assumed): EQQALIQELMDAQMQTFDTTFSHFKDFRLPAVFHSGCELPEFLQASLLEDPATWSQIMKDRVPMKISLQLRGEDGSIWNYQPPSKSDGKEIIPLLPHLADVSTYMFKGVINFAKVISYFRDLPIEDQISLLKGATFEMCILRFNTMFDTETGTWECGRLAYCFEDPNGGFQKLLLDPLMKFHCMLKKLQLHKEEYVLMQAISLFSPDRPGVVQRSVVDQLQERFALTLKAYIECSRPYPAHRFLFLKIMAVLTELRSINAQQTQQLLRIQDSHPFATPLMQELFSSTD
# Experimental: A LanthaScreen TR-FRET PXR Competitive Binding Assay was conducted according to the manufacturer's protocol (Invitrogen) as previously published (14). Briefly, serial dilutions of indole 3-propionic acid (diluted in TR-FRET PXR Assay Buffer, Invitrogen) were dispensed into triplicate wells of a black, non-treated 384 well plate (Corning Life Sciences). Subsequently, 5 μl of Fluormone PXR Green was added into each well. Finally, 5 μl of a master mix containing hPXR ligand binding domain (LBD), terbium labeled anti-glutathione S transferase (final concentration 10 nM) and dithiothreitol (final concentration 0.05 mM) was added into each well. For mPXR ligand binding domain, GST tagged mPXR LBD was purified using Glutathione Sepharose 4 Fast Flow beads (GE Health Care) in Poly-Prep Chromatography columns (Bio-Rad). hPXR LBD of the assay kit was replaced with the similar concentrations of mPXR LBD. The content was mixed briefly (10 s) and incubated in dark at room temperature for 1 h. TR-FRET was measured using SpectraMaxR M5 microplate reader (Molecular Devices) with the excitation wavelength of 340 nm and emission wavelengths of 520 and 495 nm. TR-FRET ratio was calculated by dividing the emission signal at 520 nm by emission signal at 495 nm. Data are expressed as percentage TR-FRET ratio. Error bars represent s.e.m of duplicate wells from two separate experiments.
structure (smiles),measurement,setting,value
"O=C(O)CCc1c[nH]c2ccccc12 [IPA, indole-3-propionic acid]",PXR target gene transcription in vivo,[1],induces PXR target gene transcription in vivo
same,EC50,[2],1.1 µM
